# Source: PMC3029496 (Biochemistry, 2010)
# Target: PncA H57D mutant (Mycobacterium tuberculosis, UniProt I6XD65, H57D)
# Assay type: biochemical
smiles,measurement,value
NC(=O)c1cnccn1 [pyrazinamide],"decrease in Km, H57D mutant versus wild type",20 fold
same,"decrease in kcat (catalytic turnover), H57D mutant versus wild type",38 fold
same,kcat,0.10 ± 0.01 s⁻¹
